PMC9225722, “Synthesis and biological evaluation of thieno[3,2-c]pyrazol-3-amine derivatives as potent glycogen synthase kinase 3β inhibitors for Alzheimer’s disease” (Journal of Enzyme Inhibition and Medicinal Chemistry, 2022)
“Also recorded” adds a separate entry of the source.

Test system: SH-SY5Y cells
Assay: Cytotoxicity on SH-SY5Y cells (MTT assay)
Format: cell-based, human
Description: To evaluate the neuronal cell cytotoxicity of compound 16b, we examined its cytotoxic profile on human neuroblastoma SH-SY5Y cells after incubation for 24 h by the MTT (3-(4,5-dimethylthiazol-2-yl)-2,5-diphenyltetrazolium bromide) assay.
Figure 5. Cell viability of SH-SY5Y cells exposed to compound 16b at different concentrations (range from 3.125 − 50 μM) for 24 h. Vehicle treater cells were used as control. The results were expressed as the percentage of viable cells observed after treatment with compound 16b respect to vehicle-treated cells (100%) and shown as the mean ± SD from at least three separate experiments.
SH-SY5Y cells were cultured in DMEM/F12 (Dulbecco’s modified Eagle medium and Ham’s F-12, 1:1) with 10% FBS (fetal bovine serum), 1% penicillin and 1% streptomycin under 5% CO2 atmosphere at 37 °C. SH-SY5Y cells (1 × 10^5) were seeded in 96-well plates and incubated for 24 h. Different concentrations of compound 16b were added into each well and incubated for another 24 h. The survival of cells was determined by MTT assay and the absorbance of each well were measured using a SpectraMax M5 multimode plate reader at 570 nm. Results were expressed as percentage of control and statistical analysis was performed using GraphPad Prism 5.0 (GraphPad Software Inc., San Diego, CA, USA).

CC(C)C(=O)Nc1n[nH]c2cc(-c3cccnc3)sc12 [Compound 16b, N-(5-(pyridin-3-yl)-1H-thieno[3,2-c]pyrazol-3-yl)isobutyramide]
non-cytotoxic concentration as fold of the IC50 value of GSK-3β inhibitory activity (50 μM versus GSK-3β IC50): > 16000 fold | cytotoxicity on SH-SY5Y cells (concentration up to 50 μM (3.125-50 μM), 24 h, MTT): no toxicity; also recorded: no significant cytotoxicity
